Measurements reported in PMC10604444, “Extra-Synaptic GABAA Receptor Potentiation and Neurosteroid-Induced Learning Deficits Are Inhibited by GR3027, a GABAA Modulating Steroid Antagonist” (Biomolecules, 2023).

Tests used:
male Wistar rats [1] = assay: AP-induced loss of righting reflex (LoR); format: in vivo, rat
Text: Nanomolar concentrations of AP injected intravenously dramatically potentiate the GABA response at the GABAA receptor [1, 20]. […] Under normal circumstances, the righting reflex immediately corrects the orientation of the body when it is outside of its normal upright position, such as that of a rat that is placed on its side. When the rat is awake, it immediately turns around to be standing on its paws when dropped from a low distance above a surface. This ability can be lost with the injection of AP. Twelve male Wistar rats, with a weight of 267–307 g at the test occasion, were included in the study (Taconics, Denmark). The rats were housed at three animals per cage, with a normal day/night light cycle and ad libitum access to food and water (except during the short experiment, approximately 10 min). The week before the study, the animals were handled daily, to avoid stress during the experimental session. The handling included activities used during the test, i.e., holding, tail warming in water, and wrapping in op-blankets. AP (Umecrine AB) and GR3027 (Umecrine Cognition AB) were dissolved at a concentration of 2 mg/mL in 10% 2-hydroxypropyl-β-cyclodextrin (Sigma), respectively, by sonication. To measure the antagonism of AP-induced LoR, GR3027 was mixed with the AP solution at different ratios of AP to GR3027 1: 2.5–1:7.5. […]

male Wistar rats [2] = assay: Morris water maze (MWM) learning and spatial memory; format: in vivo, rat; conditions: GR3027 alone 11 mg/kg i.v.
Procedure: Animals: Male Wistar rats were used to study the effect of AP on learning and spatial memory (Scanbur BK, Sweden). The rats were marked on the tail with a permanent spray (Porcimark™) for identification. A 12/12 h light/dark cycle was used (lights off at 18.00 h), food and water were available ad libitum, and the housing room temperature was kept at 22–23 °C. Animal testing was performed during the light part of the day. After arrival at the animal facility, the handling of all rats was performed for two weeks, including habituation to all relevant experimental procedures. […]
Spatial memory: Spatial memory was assessed using the Morris water maze (MWM), as previously described in detail, and in brief as follows. […] MWM parameters (latency, path, swimming speed, floating, and thigmotaxis) were monitored and quantified using the computer tracking system Menu 2020 (HVS Image, UK). […]
Substances and treatments: AP (3α-OH-5α-pregnan-20-one; 2.0 mg/mL; Umecrine AB, Sweden) and GR3027 (3α-ethynyl-3β-hydroxyl-5α-androstan-17-oxime; 2.0 mg/mL; Umecrine Cognition AB, Stockholm, Sweden) were dissolved in 10% 2-hydroxypropyl-beta-cyclodextrin (β-CD; Sigma, St. Louis, MO, USA) using ultrasound. The various combination treatments were then prepared by mixing these solutions in calculated proportions (Table 1). […]

SMILES: C#C[C@]1(O)CC[C@@]2(C)[C@@H](CC[C@@H]3[C@@H]2CC[C@]2(C)/C(=N/O)CC[C@@H]32)C1 [GR3027, 3α-ethynyl-3β-hydroxyl-5α-androstan-17-oxime]
- Dosage of GR3027 that antagonizes AP-induced loss of righting reflex (male Wistar rats [1]; AP 2 mg/kg i.v., in 10% 2-hydroxypropyl-β-cyclodextrin): 15 mg/kg
- Effect on general condition of the rat (male Wistar rats [1]; GR3027 15 mg/kg): did not affect the general condition
- Swim speed vs groups treated with AP or AP:GR3027 combinations (male Wistar rats [2]; p < 0.05): lower
- Swim speed vs vehicle group (male Wistar rats [2]; p > 0.05): no different
